Assay results: patent US4486429A, “Amino derivatives of 4-phenyl 4-oxobuten-2-oic acid, pharmaceutical compositions containing them, and methods for preparing and therapeutically using them” (Roussel Uclaf, priority 1981, dated 1984)

What was measured:
[1] = Determination of the acute toxicity (LD50, oral, mice); conditions: mouse, in vivo, oral administration
Description: (3) Determination of the acute toxicity
The LD50 was evaluated after oral administration of the product to mice.

gastric secretions = experiment: Determination of the anti-gastric secretion activity (Shay technique, pylorus ligation, rats); assay type: in vivo; conditions: pylorus ligated, dose 10 mg/kg, intraduodenal, 3 hours, total acidity of gastric juice
Description: (1) Determination of the anti-gastric secretion activity
The technique used is described by H. SHAY et al. in Gastroenterology 5, 43, 1945.
Male rats were used having a weight of about 200 g each (10 animals per lot), and kept without food for 48 hours but enjoying ad libitum 8% glucose solution. After the rats were slightly anesthetized with ether the pylorus of each was ligated. At the end of the operation, the product to be tested was administered intraduodenally in different doses or, for the control animals 0.5% carboxymethyl cellulose solution was administered, whereupon the abdominal incision is sutured.
Three hours later, the animals were sacrificed and their stomachs removed after ligating the esophagus. The gastric juice was removed and centrifuged. The volume of gastric juice obtained was then measured and the total acidity of the gastric juice was determined by titrating a […] of gastric juice to a pH of 7 by means of 1/10 N aqueous sodium hydroxide solution.
The percentages of variation in total acidity of the gastric secretions between control and test animals were calculated.

stomach ulcers = experiment: Determination of the anti-ulcer activity (stress ulcer, rats); assay type: in vivo; conditions: female rats, stress and cold (8° C., two hours), dose 10 mg/kg by esophageal tube two hours before
Description: (2) Determination of the anti-ulcer activity
The technique consists in inducing stomach ulcers by stress in rats (stress and cold). The technique used is described by E. C. SENAY and R. J. LEVINE, Proc. Soc. Exp. Biol. 124, 1221 (1967).
Female rats weighing about 150 g (5 animals per lot) which have fasted for 48 hours with water ad libitum and glucose solution for 8 hours were used. By an esophageal tube, the animals were administered the test compound, or a solution of 0.5% carboxymethyl cellulose solution for the control animals. Two hours later, the animals were bundled in a jacket of netting. Their paws were bound and the entire unit was placed in a refrigerator at 8° C. for two hours. The rats were released and killed with ether.
Their stomachs were removed, opened along the greater curvature and examined by binocular magnifier. The seriousness of ulceration was clasified from 0 to 3 for each stomach.
For each lot of rats the average intensity of the ulcerations was calculated. The degree of ulceration for control and test animals was determined and the variation expressed in percentage.

| Compound | LD50 [1] | Anti-secretion activity (% variation referred to the controls): Acid Concentration (gastric secretions) | Anti-ulcer activity (% variation referred to the controls): Ulceration (stomach ulcers) |
| --- | --- | --- | --- |
| CCOC(=O)Nc1ccc(C(=O)/C=C/C(=O)O)cc1 [Example 1, (E) 4-(4-carbethoxyaminophenyl)-4-oxobuten-2-oic acid] | > 1000 mg/kg | -55% | -41% |
| CN(C)c1ccc(C(=O)/C=C/C(=O)O)cc1 [Example 4, (E) 4-(4-N,N-dimethylaminophenyl) 4-oxobuten-2-oic acid] | 750 mg/kg | -58% | -61% |
